# Measurements from patent publication US6984649B1, “Pyridine derivatives” (Bayer Aktiengesellschaft, priority 2000, dated 2006).
# Where a name gives a salt, the structure may show the parent alone.
# Molecular target: T1, human IKK-β (Homo sapiens, UniProt O14920)
# T1 construct: A cDNA fragment encoding human IKK-β open reading frame was generated by PCR; His tag (from pcDNA3.1/His C); made in house; host or cells: Sf21 insect cells (baculovirus); substrate made in E. coli
# T1 sequence (O14920 1-756): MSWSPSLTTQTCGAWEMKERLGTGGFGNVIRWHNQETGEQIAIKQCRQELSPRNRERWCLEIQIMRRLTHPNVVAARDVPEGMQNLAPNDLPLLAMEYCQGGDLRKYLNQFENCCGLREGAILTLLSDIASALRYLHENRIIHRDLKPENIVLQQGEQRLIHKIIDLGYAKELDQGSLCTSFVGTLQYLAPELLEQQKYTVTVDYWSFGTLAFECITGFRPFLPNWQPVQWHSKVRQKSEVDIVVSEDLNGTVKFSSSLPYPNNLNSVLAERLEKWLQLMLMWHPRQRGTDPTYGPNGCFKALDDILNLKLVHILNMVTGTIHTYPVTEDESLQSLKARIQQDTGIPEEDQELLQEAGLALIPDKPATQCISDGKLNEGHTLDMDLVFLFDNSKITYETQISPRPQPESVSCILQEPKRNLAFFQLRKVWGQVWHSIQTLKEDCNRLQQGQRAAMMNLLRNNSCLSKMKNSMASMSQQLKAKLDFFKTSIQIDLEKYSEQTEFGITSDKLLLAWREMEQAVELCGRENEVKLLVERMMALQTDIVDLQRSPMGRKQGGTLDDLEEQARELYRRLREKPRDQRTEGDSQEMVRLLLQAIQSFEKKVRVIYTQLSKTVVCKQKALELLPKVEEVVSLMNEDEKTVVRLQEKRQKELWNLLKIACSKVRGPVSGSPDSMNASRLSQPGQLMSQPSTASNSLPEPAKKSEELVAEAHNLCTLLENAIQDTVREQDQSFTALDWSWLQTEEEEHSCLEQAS
# Experiment: IKK-β kinase inhibitory assay
# Assay type: biochemical
# Conditions: compounds as yielded by solid phase synthesis, purity about 40 to 90%, read-out: In vitro activity grade (In vitro IC50)
# From the text: [IKK-β Kinase Inhibitory Assay]
# (1) Preparation of IKK-β Kinase Protein.
# • A cDNA fragment encoding human IKK-β open reading frame was generated by PCR with the use of a pair of primers designed from the published sequence (Woronicz J D et al. (1997) Science 278, 866-869). A template was obtained from Quickclone cDNA (Clontech) using Elongase™ Amplification kit (Life Technologies). The DNA fragments generated by PCR were gel-purified and subcloned into pBluescript. The cDNA fragment cloned in pBluescript was inserted into pcDNA3.1/His C KpnI/NotI, and transferred into pVL1393 SmaI/XbaI (Pharmingen) to construct a baculovirus transfer vector. Then the vector, together with the linearized baculovirus (BaculoGold™, Pharmingen) was used to transfect Sf21 cells (Invitrogen, San Diego, Calif.). Generated recombinant baculovirus was cloned and amplified in Sf21 cells, grown in TNM-FH insect cell medium (Life Technologies, Inc.) supplemented with 10% FCS, […] Gentamycin, 0.1% Pluronic F-68 (Life Technologies, Inc.) as suspension culture (200 ml in 1 L Erlenmeyer flask; 27° C.; 130 rpm). Sf21 cells were infected with this amplified virus with a multiplicity of infection of 5 following standard protocols (Crossen R, Gruenwald S (1997) Baculovirus Expression Vector System Instruction Manual, Pharmingen Corporation) and harvested 48 hrs later. The cells were lysed to obtain the produced chimeric protein of IKK-β kinase fused by histidine (His-tagged IKK-beta). (2) The Preparation of Purified GST-IκBα Fusion Proteins • An expression vector containing the nucleotide sequence encoding fusion protein of GST with amino acid residues 1 to 54 of IκBα under the control of an IPTG-inducible promoter was constructed. The expression vector was introduced in E. coli and the transformant was cultured and lysed to obtain a GST-IκBα fusion protein. Then the resulting GST-IκBα fusion protein was purified and biotinated for kinase assay. (3) The Measurement of IKK-β Kinase Activity • The 96-well format kinase assay of IKK-β were performed to test the inhibitory activity of the compounds of the present invention. First, 5 μl of a test compound was put in the presence of 2.5% dimethyl sulfoxide (DMSO) in each well in a U-bottomed 96-well plate (Falcon). For control wells of background (BG) and total phosphorylation (TP), 5 μl of 2.5% DMSO was put. Recombinant IKK-β (final 0.6 μg/ml) and bio-GST-IκBα (1-54) (final 0.2 μM) were diluted in 25 μl of 2×kinase buffer β (40 mM Tris-HCl, pH 7.6, 40 mM MgCl2, 40 mM β-glycerophosphate, 40 mM p-nitrophenylphosphate, 2 mM EDTA, 40 mM creatine phosphate, 2 mM DTT, 2 mM Na3VO4, 0.2 mg/ml BSA and 0.8 mM phenylmethylsulfonyl fluoride) and transferred to the 96-well plate. Bio-GST-IκBα (1-54) in 25 μl of 2×kinase buffer β without IKK-β was transferred to BG wells. Then 20 μl of 12.5 μM ATP, 62.5 μCi/ml [γ-^33P] ATP (Amersham Pharmacia Biotech) was added and the resulting mixture was incubated for 2 hrs at room temperature. The kinase reactions were terminated by the addition of 150 μl of termination buffer (100 mM EDTA, 1 mg/ml BSA, 0.2 mg NaN3). One hundred and fifty μl of the sample were transferred to a streptavidin-coated, white MTP (Steffens Biotechniche Analysen GmbH #08114E14.FWD) to capture the biotinylated substrates. After 1 hr of incubation, non-bound radioactivity was eliminated by washing the wells five times with 300 μl of washing buffer including 0.9% NaCl and 0.1% (w/v) Tween-20 with the use of a MW-96 plate washer (BioTec). The bound radioactivity was determined after the addition of 170 μl MicroScint-PS scintillation cocktail (Packard) using a TopCount scintillation counter. [Syk Tyrosine Kinase Inhibitory Assay for Selectivity] (1) Preparation of Syk Protein • A cDNA fragment encoding human Syk openreading frame was cloned from total RNA of human Burkitt's lymphoma B cell lines, Raji (American Type Culture Collection), with the use of RT-PCR method.
row,SMILES,IC50
1,"Nc1nc(-c2ccccc2O)cc2c1CNC2Cc1ccccc1 (stereo in doubt) [Example 20-3, 2-[(1S)-4-amino-1-benzyl-2,3-dihydro-1H-pyrrolo[3,4-c]pyridin-6-yl]phenol hydrochloride]",< 0.5 µM
2,"CC1(c2cc(-c3ccccc3O)nc(N)c2C#N)CCCNC1 (centres unmarked) [Example 1-3, 2-amino-6-(2-hydroxyphenyl)-4-(3-methylpiperidin-3-yl)-nicotinonitrile hydrochloride]",0.5 to 2 µM
3,"CNC1CCCC(c2cc(-c3ccccc3O)nc(N)c2C#N)C1 (centres unmarked) [Example 1-5, 2-amino-6-(2-hydroxyphenyl)-4-[3-methylamino]cyclohexyl]nicotinonitrile hydrochloride]",< 0.5 µM
4,"N#Cc1c(C2CCCNC2)cc(-c2ncccc2O)nc1N (centres unmarked) [Example 1-6, 6-amino-3′-hydroxy-4-(3-piperidinyl)-2,2′-bipyridine-5-carbonitrile hydrochloride]",< 0.5 µM
5,"N#Cc1c(C2CCCNC2)cc(-c2sccc2O)nc1N (centres unmarked) [Example 1-7, 2-amino-6-(3-hydroxy-2-thienyl)-4-(3-piperidinyl)nicotinonitrile hydrobromide]",< 0.5 µM
6,"N#Cc1c(C2CCCC(C(=O)O)C2)cc(-c2ccccc2O)nc1N (centres unmarked) [Example 1-8, 3-[2-amino-3-cyano-6-(2-hydroxyphenyl)-4-pyridinyl]cyclohexanecarboxylic acid]",0.5 to 2 µM
7,"N#Cc1c(C2=CCCNC2)cc(-c2ccccc2O)nc1N [Example 1-9, 2′-amino-6′-(2-hydroxyphenyl)-1,2,5,6-tetrahydro-3,4′-bipyridine-3′-carbonitrile hydrochloride]",< 0.5 µM
8,"N#Cc1c(C2CCCNC2)cc(-c2c(N)cccc2O)nc1N (centres unmarked) [Example 1-10, 2-amino-6-(2-amino-6-hydroxyphenyl)-4-(3-piperidinyl)nicotinonitrile hydrochloride]",2 to 10 µM
9,"N#Cc1c(C2CCCNC2)cc(-c2c(O)cccc2NCc2ccccc2)nc1N (centres unmarked) [Example 1-11, 2-amino-6-[2-(benzylamino)-6-hydroxyphenyl]-4-(3-piperidinyl)nicotinonitrile hydrochloride]",0.5 to 2 µM
10,"CC(=O)Nc1cccc(O)c1-c1cc(C2CCCNC2)c(C#N)c(N)n1 (centres unmarked) [Example 1-12, N-{2-[6-amino-5-cyano-4-(3-piperidinyl)-2-pyridinyl]-3-hydroxyphenyl}acetamide hydrochloride]",2 to 10 µM
11,"N#Cc1c(C2CCCNC2)cc(-c2c(O)cccc2O)nc1N (centres unmarked) [Example 2-1, 2-amino-6-(2,6-dihydroxyphenyl)-4-(3-piperidinyl)nicotinonitrile hydrochloride]",< 0.5 µM
12,"N#Cc1c(C2CCCNC2)cc(-c2c(O)cccc2OCc2ccccc2)nc1N (centres unmarked) [Example 2-2, 2-amino-6-[2-(benzyloxy)-6-hydroxyphenyl]-4-(3-piperidinyl)nicotinonitrile hydrochloride]",< 0.5 µM
13,"N#Cc1c(C2CCNCC2)cc(-c2c(O)cccc2OCC2CC2)nc1N [Example 2-3, hydrochloride]",< 0.5 µM
14,"CN1CCCC(c2cc(-c3c(O)cccc3OCC3CC3)nc(N)c2C#N)C1 (centres unmarked) [Example 3-1, 2-amino-6-[2-(cyclopropylmethoxy)-6-hydroxyphenyl]-4-(1-methyl-3-piperidinyl)nicotinonitrile]",< 0.5 µM
15,"N#Cc1c(C2CCCN(Cc3ccccc3)C2)cc(-c2c(O)cccc2OCC2CC2)nc1N (centres unmarked) [Example 3-2, 2-amino-4-(1-benzyl-3-piperidinyl)-6-[2-(cyclopropylmethoxy)-6-hydroxyphenyl]nicotinonitrile]",2 to 10 µM
16,"CCCNc1nc(-c2ccccc2O)cc(C2CCCNC2)c1C#N (centres unmarked) [Example 4-2, 6-(2-hydroxyphenyl)-4-(3-piperidinyl)-2-(propylamino)nicotinonitrile hydrochloride]",2 to 10 µM
17,"CNc1nc(-c2ccccc2O)cc(C2CCCNC2)c1C#N (centres unmarked) [Example 4-3, 6-(2-hydroxyphenyl)-2-(methylamino)-4-(3-piperidinyl)nicotinonitrile hydrochloride]",2 to 10 µM
18,"N#Cc1c(C2CCCNC2)cc(-c2ccccc2O)nc1Nc1ccccc1 (centres unmarked) [Example 4-4, hydrochloride]",> 10 µM
19,"Nc1n[nH]c2nc(-c3ccccc3O)cc(C3CCCNC3)c12 (centres unmarked) [Example 5-1, 2-[3-amino-4-(3-piperidinyl)-1H-pyrazolo[3,4-b]pyridin-6-yl]phenol hydrochloride]",2 to 10 µM
20,"CC(=O)Nc1n[nH]c2nc(-c3ccccc3O)cc(C3CCCNC3)c12 (centres unmarked) [Example 5-2, N-[6-(2-hydroxyphenyl)-4-(3-piperidinyl)-1H-pyrazolo[3,4-b]pyridin-3-yl]acetamide hydrochloride]",> 10 µM
21,"CC(=O)Nc1nc(-c2ccccc2O)cc(C2CCCNC2)c1C#N (centres unmarked) [Example 6-1, N-[3-cyano-6-(2-hydroxyphenyl)-4-(3-piperidinyl)-2-pyridinyl]acetamide hydrochloride]",< 0.5 µM
22,"CC(=O)Nc1nc(-c2c(O)cccc2OCC2CC2)cc(C2CCNCC2)c1C#N [Example 6-2, N-[3-cyano-6-[2-(cyclopropylmethoxy)-6-hydroxyphenyl]-4-(4-piperidinyl)-2-pyridinyl]acetamide hydrochloride]",< 0.5 µM
23,"NC(=O)c1c(C2CCCNC2)cc(-c2ccccc2O)nc1N (centres unmarked) [Example 7-1, 2-amino-6-(2-hydroxyphenyl)-4-(3-piperidinyl)nicotinamide hydrochloride]",< 0.5 µM
24,"O=c1[nH]c(=O)c2c(C3CCCNC3)cc(-c3ccccc3O)nc2[nH]1 (centres unmarked) [Example 7-2, 7-(2-hydroxyphenyl)-5-(3-piperidinyl)pyrido[2,3-d]pyrimidine-2,4(1H,3H)-dione hydrochloride]",< 0.5 µM
25,"O=c1[nH]c2nc(-c3ccccc3O)cc(C3CCCNC3)c2c(=O)n1-c1ccccc1 (centres unmarked) [Example 7-3, 7-(2-hydroxyphenyl)-3-phenyl-5-(3-piperidinyl)pyrido[2,3-d]pyrimidine-2,4(1H,3H)-dione hydrochloride]",0.5 to 2 µM
26,"Nc1nc(-c2ccccc2O)cc2c1C(=O)N1CCCC2C1 (centres unmarked) [Example 8-1, 6-amino-4-(2-hydroxy-phenyl)-5,9-diaza-tricyclo[7.3.1.0^2,7]trideca-2(7),3,5-trien-8-one]",0.5 to 2 µM
